Experimental data: patent publication US20250230188A1, “METAGENOME-GUIDED BIOSYNTHESIS AND COMPOUNDS AND METHODS OF USE THEREOF” (The Rockefeller University, priority 2022, published 2025)
Converted amounts (≈) assume the structure as drawn. “Also recorded” adds a separate entry of the source. Like-named read-outs stand apart in the source and are kept apart here.

How the values were obtained:
[1] = tested on: E. faecium com15; assay: Syn-BNP MIC against ESKAPE pathogens: E. faecium; type: cell-based, Enterococcus faecium; settings: for MIC: E. faecium com15, Gram-positive
Experimental: (§1) All syn-BNPs, as well as the parent antibiotic albicidin were assayed for antimicrobial activity against the ESKAPE pathogens (Enterococcus faecium, Staphylococcus aureus, Klebsiella pneumoniae, Acinetobacter baumannii, Pseudomonas aeruginosa, and Enterobacter species), which are a collection of bacteria most commonly associated with antibacterial resistant nosocomial infections. […]

[2] = tested on: S. aureus SH1000; assay: Syn-BNP MIC against ESKAPE pathogens: S. aureus; type: cell-based, Staphylococcus aureus; settings: for MIC: S. aureus SH1000, Gram-positive
Experimental: as §1

[3] = tested on: K. pneumoniae 10031; assay: Syn-BNP MIC against ESKAPE pathogens: K. pneumoniae; type: cell-based, Klebsiella pneumoniae; settings: for MIC: K. pneumoniae 10031, Gram-negative
Experimental: (§2) All syn-BNPs, as well as the parent antibiotic albicidin were assayed for antimicrobial activity against the ESKAPE pathogens (Enterococcus faecium, Staphylococcus aureus, Klebsiella pneumoniae, Acinetobacter baumannii, Pseudomonas aeruginosa, and Enterobacter species), which are a collection of bacteria most commonly associated with antibacterial resistant nosocomial infections.

[4] = tested on: A. baumannii; assay: Syn-BNP MIC against ESKAPE pathogens: A. baumannii; type: cell-based, Acinetobacter baumannii; settings: for MIC: Gram-negative
Experimental: as §2

[5] = tested on: P. aeruginosa; assay: Syn-BNP MIC against ESKAPE pathogens: P. aeruginosa; type: cell-based, Pseudomonas aeruginosa; settings: Gram-negative
Experimental: as §2

[6] = tested on: E. cloacae 13047; assay: Syn-BNP MIC against ESKAPE pathogens: E. cloacae; type: cell-based, Enterobacter cloacae; settings: E. cloacae 13047, Gram-negative
Experimental: as §2

[7] = tested on: E. coli 25922; assay: Syn-BNP MIC against E. coli; type: cell-based, Escherichia coli; settings: E. coli 25922, Gram-negative
[8] = tested on: E. coli-BL21 (pET28c); type: cell-based, Escherichia coli; settings: empty vector
Source text: (§3) As circumventing common antibiotic resistance mechanisms was likely to play a key role in the natural selection of antibiotic congeners, the present studies investigated whether some of the congeners evolved to evade AlbD-mediated cleavage. To determine the susceptibility of the herein described BGC-inspired analogs to AlbD encoded resistance, the MIC of each syn-BNP against E. coli engineered to express AlbD was compared to that of E. coli containing an empty expression vector.

[9] = tested on: E. coli-BL21 (pET28c-AlbD); type: cell-based, Escherichia coli; settings: for Fold increase in MIC: AlbD expressing strain versus empty vector strain; for MIC: E. coli-BL21 (pET28c-AlbD); for susceptibility to AlbD encoded resistance: E. coli expressing AlbD versus empty vector
Source text: as §3

[10] = target: DNA gyrase (Escherichia coli, UniProt P0AES4+P0AES6); settings: FIG. 9
Source text: Further studies are focused on an investigation of other mutations via a clinical introduction of this class of antibiotics.

Sequence of DNA gyrase (P0AES4 whole entry, one chain of several): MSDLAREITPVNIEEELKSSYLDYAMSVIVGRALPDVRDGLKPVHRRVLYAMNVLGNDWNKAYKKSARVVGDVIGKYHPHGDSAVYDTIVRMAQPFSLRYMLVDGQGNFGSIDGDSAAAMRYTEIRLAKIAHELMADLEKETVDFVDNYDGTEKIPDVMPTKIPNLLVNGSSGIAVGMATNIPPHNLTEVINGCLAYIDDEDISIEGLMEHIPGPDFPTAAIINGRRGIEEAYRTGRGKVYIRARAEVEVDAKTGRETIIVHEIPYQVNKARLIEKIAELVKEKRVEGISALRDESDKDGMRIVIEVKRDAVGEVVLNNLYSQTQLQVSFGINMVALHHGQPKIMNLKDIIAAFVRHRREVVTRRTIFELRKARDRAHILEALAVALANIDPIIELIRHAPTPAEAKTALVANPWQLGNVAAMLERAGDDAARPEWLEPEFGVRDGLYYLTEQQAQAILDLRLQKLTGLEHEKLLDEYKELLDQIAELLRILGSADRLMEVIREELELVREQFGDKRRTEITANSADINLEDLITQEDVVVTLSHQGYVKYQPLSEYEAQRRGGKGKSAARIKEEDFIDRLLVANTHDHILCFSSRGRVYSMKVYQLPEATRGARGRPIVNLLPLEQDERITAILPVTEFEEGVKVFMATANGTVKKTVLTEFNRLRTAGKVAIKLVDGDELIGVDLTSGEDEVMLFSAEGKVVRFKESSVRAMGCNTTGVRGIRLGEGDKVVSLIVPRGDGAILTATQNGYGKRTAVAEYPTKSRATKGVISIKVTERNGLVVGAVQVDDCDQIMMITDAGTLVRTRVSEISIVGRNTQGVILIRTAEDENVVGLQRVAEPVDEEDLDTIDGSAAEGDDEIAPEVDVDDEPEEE

SMILES | MIC [1] [µg/mL] | MIC [2] [µg/mL] | MIC [3] [µg/mL] | MIC [4] [µg/mL] | MIC [5] [µg/mL] | MIC [6] [µg/mL] | MIC [7] [µg/mL] | MIC [8] [µg/mL] | Fold increase in MIC [9] [fold] | MIC [9] [µg/mL] | fold more potent than albicidin ([1]; E. faecium) [fold] | fold more potent than albicidin ([2]; S. aureus) [fold] | fold more potent than albicidin ([3]; K. pneumoniae) [fold] | MIC compared with albicidin [4] | MIC ([1]; Enterococcus faecium, read-out: MIC) [µg/mL] | MIC ([2]; Staphylococcus aureus, read-out: MIC) [µg/mL] | MIC ([7]; Escherichia coli, read-out: MIC) [µg/mL] | susceptibility to AlbD encoded resistance [9] | affinity for DNA gyrase [10]
CO[C@@H](C(N)=O)[C@H](NC(=O)c1ccc(NC(=O)[C@@H](N)Cc2ccc(O)cc2)cc1)C(=O)Nc1ccc(C(=O)Nc2ccc(C(=O)Nc3ccc(C(=O)O)cc3)c(O)c2OC(C)C)cc1 [PABA57] | >8 | >8 | 1 (≈ 1.14 µM) | >8 | >8 | >8 | 2 (≈ 2.28 µM) | 0.5 (≈ 0.571 µM) | >128 | > 64 |  |  |  |  |  |  |  |  | 
CO[C@@H](C(N)=O)[C@H](NC(=O)c1ccc(NC(=O)[C@@H](N)Cc2ccccc2)cc1)C(=O)Nc1ccc(C(=O)Nc2ccc(C(=O)Nc3ccc(C(=O)O)c(O)c3OC(C)C)c(O)c2OC(C)C)cc1 [PABA48] | 0.125 (≈ 0.134 µM) | 0.25 (≈ 0.268 µM) | 0.125 (≈ 0.134 µM) | 0.125 (≈ 0.134 µM) | >8 | >8 | 0.125 (≈ 0.134 µM) | 0.06 (≈ 0.0642 µM) | >133 | > 8 | 16 | 2 | > 64 | same MIC as albicidin |  |  |  |  | 
O=C(O)c1cn(C2CC2)c2cc(N3CCNCC3)c(F)cc2c1=O [Ciprofloxacin, reference compound] |  |  |  |  |  |  |  |  |  |  |  |  |  |  | 0.5 (≈ 1.51 µM) | 0.5 (≈ 1.51 µM) | 0.0075 (≈ 0.0226 µM) |  | 
COc1c(NC(=O)/C(C)=C/c2ccc(O)cc2)ccc(C(=O)N[C@@H](CC#N)C(=O)Nc2ccc(C(=O)Nc3ccc(C(=O)Nc4ccc(C(=O)O)cc4)c(O)c3OC)cc2)c1O [PABA95] | 8 (≈ 9.49 µM) | 4 (≈ 4.75 µM) | >8 | 0.5 (≈ 0.593 µM) | 8 (≈ 9.49 µM) | 8 (≈ 9.49 µM) | 0.25 (≈ 0.297 µM) | 0.015 (≈ 0.0178 µM) | 133 | 2 (≈ 2.37 µM) |  |  |  |  |  |  |  |  | 
COc1c(NC(=O)c2ccc(NC(=O)c3ccc(NC(=O)[C@H](CC#N)NC(=O)c4ccc(NC(=O)/C(C)=C/c5ccc(O)cc5)cc4)cc3)c(OC)c2O)ccc(C(=O)O)c1O [Albicidin, reference compound] | 2 (≈ 2.37 µM) | 0.5 (≈ 0.593 µM) | >8 | 0.125 (≈ 0.148 µM) | 1 (≈ 1.19 µM) | 8 (≈ 9.49 µM) | 0.015 (≈ 0.0178 µM) | 0.0019 (≈ 0.00225 µM) | 131 | 0.25 (≈ 0.297 µM) |  |  |  |  |  |  |  |  | 
COc1c(NC(=O)/C(C)=C/c2ccc(O)cc2)ccc(C(=O)N[C@@H](CC#N)C(=O)Nc2ccc(C(=O)Nc3ccc(C(=O)Nc4ccc(C(=O)O)cc4)c(O)c3OC)c(O)c2OC)c1O [PABA95-2] |  |  |  |  |  |  |  | 0.06 (≈ 0.0675 µM) | 8 | 0.5 (≈ 0.563 µM) |  |  |  |  |  |  |  | not susceptible to AlbD encoded resistance | 
CO[C@@H](C(N)=O)[C@H](NC(=O)c1ccc(NC(=O)[C@@H](N)Cc2ccc(O)cc2)cc1)C(=O)Nc1ccc(C(=O)Nc2ccc(C(=O)Nc3ccc(C(=O)O)c(O)c3OC(C)C)c(O)c2OC(C)C)cc1 [PABA70] | 1 (≈ 1.05 µM) | 1 (≈ 1.05 µM) | 1 (≈ 1.05 µM) | 4 (≈ 4.21 µM) | >8 | >8 | 2 (≈ 2.11 µM) | 0.5 (≈ 0.526 µM) | >128 | > 64 |  |  |  |  |  |  |  |  | 
COc1c(NC(=O)c2ccc(NC(=O)[C@H](CC#N)NC(=O)c3ccc(NC(=O)/C(C)=C/c4ccc(O)cc4)cc3)c(OC)c2O)ccc(C(=O)Nc2ccc(C(=O)O)cc2)c1O [PABA34] | >8 | >8 | >8 | 2 (≈ 2.37 µM) | 2 (≈ 2.37 µM) | 2 (≈ 2.37 µM) |  | 0.0075 (≈ 0.0089 µM) | 4 | 0.03 (≈ 0.0356 µM) |  |  |  |  |  |  |  | resistant to proteolytic cleavage by AlbD; also recorded: not susceptible to AlbD encoded resistance | retained a high affinity for DNA gyrase
